Assays:
Septoria tritici = test: Test 2 for antifungal effect, plate medium: S.t; assay type: cell-based; conditions: PDA plate medium
Protocol: (§1) Compound (1-1b) or Compound (1-2b) was dissolved in dimethyl sulfoxide, and the resulting solution was added to a PDA medium (potato dextrose-agar medium) at about 60° C. The medium and the solution were mixed thoroughly in a conical flask, poured into a petri dish, and allowed to solidify. In this way, a plate medium containing Compound (1-1b) or Compound (1-2b) at a certain concentration was prepared.
(§2) Meanwhile, test microorganisms cultured on a plate medium in advance were cut out with the use of a cork borer 4 mm in diameter, and were inoculated onto the compound-containing plate medium. After the inoculation, the pathogens were cultured at their optimum growth temperatures (for example, refer to LIST OF CULTURES 1996 microorganisms 10th edition, Institute for Fermentation (foundation)) for 1 day to 7 days, and their growth was determined by measuring the diameter of their flora. The extent of growth of the pathogens on the compound-containing plate medium was compared with that of pathogens on a plate medium where no compound was added, and mycelial growth inhibition rate was calculated as in Experiment Example 10. Note that, in Experiment Example 11, controls used in the antifungal effect tests are Compound (1-1a) and Compound (1-2a) instead of Compound (1-1b) and Compound (1-2b), respectively.
(§3) The results were rated on a 1-to-5 scale as in Experiment Example 10.

Botrytis cinerea [1] = test: Controlling effect on cucumber gray mold by foliage spray treatment (Tests 1 and 2); assay type: in vivo; conditions: foliage spray 12.5 mg/L, 1,000 L/ha, four days after inoculation
Protocol: The cucumber plants had been grown in square plastic pots (6 cm×6 cm). After the suspension was then left to dry, paper discs (8 mm in diameter) impregnated with a spore suspension of Botrytis cinerea w ere placed on the leaves, and the plants were kept at 20° C. in a high humidity environment. Four days after inoculation, the lesion degree of the cucumber gray mold was examined in accordance with the criteria shown in Table 1, and the protective values were calculated by the following equation: Protective value (%)=(1−Average lesion degree in sprayed plot/Average lesion degree in unsprayed plot)×100.
The cucumber plants had been grown in square plastic pots (6 cm×6 cm). After the leaves were air-dried, paper discs (8 mm in diameter) impregnated with a spore suspension of cucumber graymold-causing microorganisms were placed on the leaves, and the plants were kept at 20° C. in a high humidity environment. 4 days after the inoculation, the lesion degree of the cucumber gray mold was examined, and the protective values were calculated as were in Experiment Example 1.

wheat [2] = test: Necrosis (adverse effects) of seed treatment on wheat seeds; assay type: in vivo; conditions: 20 days after sowing
Protocol: A pot experiment was performed to evaluate necrosis (adverse effects) caused by the seed treatment. Compound (1-1a) and Compound (1-2a), each which was dissolved in DMSO to make up such a concentration that the seeds would be treated in treatment amount of 2 g to 200 g ai/100 kg seeds, were each applied to wheat seeds in a vial, and thereafter 8 wheat seeds were sowed in an 80-cm^2 pot. The pot was kept in a greenhouse with water supplied to its bottom. 20 days after the sowing, an extent of necrosis (percentage of necrotic surface area) of wheat was evaluated. A necrosis index was derived from the percentage of the necrotic surface area, based on the criteria shown by Table 13. In Table 13, a smaller necrosis index indicates a lesser adverse effect of necrosis caused by the treatment with the use of a plant disease controlling agent.

Botrytis cinerea [3] = test: Test 1 for antifungal effect, plate medium: B.c; assay type: cell-based; conditions: PDA plate medium
Protocol: as §1, with “(1-1a)” for “(1-1b)”, “(1-2a)” for “(1-2b)”
(§4) Meanwhile, test microorganisms cultured on a plate medium in advance were cut out with the use of a cork borer 4 mm in diameter, and were inoculated onto the compound-containing plate medium. After the inoculation, the microorganisms were cultured at their optimum growth temperatures (for example, refer to LIST OF CULTURES 1996 microorganisms 10th edition, Institute for Fermentation (foundation)) for 1 day to 7 days, and their growth was determined by measuring the diameter of their flora. The extent of growth of the microorganisms on the compound-containing plate medium was compared with that of microorganisms on a plate medium where no compound was added, and mycelial growth inhibition rate was calculated by the following equation: R=100(dc−dt)/dc where R is mycelial growth inhibition rate (%), dc is the flora diameter in untreated plate, and dt is the flora diameter in plate treated with the compound.
(§5) A larger antifungal index indicates a better antifungal effect.

wheat [4] = test: Growth inhibition (adverse effects) of seed treatment on wheat seeds; assay type: in vivo; conditions: wheat, 20 days after sowing
Protocol: A pot experiment was performed to evaluate the growth inhibition (adverse effects) caused by the seed treatment. Compound (1-1a) and Compound (1-2a), each of which was dissolved in DMSO to make up such a concentration that the seeds would be treated in treatment amount of 2 g to 200 g ai/100 kg seeds, were each applied to wheat seeds in a vial, and thereafter 8 wheat seeds were sowed in an 80-cm^2 pot. The pot was kept in a greenhouse with water supplied to its bottom. 20 days after the sowing, a growth measure of wheat was evaluated. A growth inhibition index was calculated based on the criteria shown by Table 10. In Table 10, a smaller growth inhibition index indicates a lesser adverse effect of growth inhibition caused by the treatment with the use of a plant disease controlling agent.

Rhizopus oryzae = test: Test 1 for antifungal effect, plate medium: R.o; assay type: cell-based; conditions: PDA plate medium
Protocol: as §1, with “(1-1a)” for “(1-1b)”, “(1-2a)” for “(1-2b)”
as §4, §5

Pyrenophora graminea = test: Test 2 for antifungal effect, plate medium: P.g; assay type: cell-based; conditions: PDA plate medium
Protocol: as §1, §2, §3

Microdochium nivale = test: Test 1 for antifungal effect, plate medium: M.n; assay type: cell-based; conditions: PDA plate medium
Protocol: as §1, with “(1-1a)” for “(1-1b)”, “(1-2a)” for “(1-2b)”
as §4, §5

Fusarium oxysporum = test: Test 2 for antifungal effect, plate medium: F.c; assay type: cell-based; conditions: PDA plate medium
Protocol: as §1, §2, §3

[5] = treatment amount 2 g ai/100 kg seeds
[6] = treatment amount 20 g ai/100 kg seeds
[7] = treatment amount 200 g ai/100 kg seeds

## CC1(CCl)CCC(Cc2ccc(Cl)cc2)C1(O)Cn1cncn1 (single isomer, unassigned) [Compound (1-1a), (1,2-cis, 1,5-cis)-5-(4-chlorobenzyl)-2-chloromethyl-2-methyl-1-(1H-1,2,4-triazole-1-ylmethyl)cyclopentanol]
Septoria tritici; 0.04 mg/L
  Antifungal index (mycelial growth inhibition rate): 1 (Less than 60%)
Septoria tritici; 0.08 mg/L
  Antifungal index (mycelial growth inhibition rate): 1 (Less than 60%)
Septoria tritici; 0.16 mg/L
  Antifungal index (mycelial growth inhibition rate): 1 (Less than 60%)
Septoria tritici; 0.31 mg/L
  Antifungal index (mycelial growth inhibition rate): 1 (Less than 60%)
Septoria tritici; 0.63 mg/L
  Antifungal index (mycelial growth inhibition rate): 1 (Less than 60%)
Septoria tritici; 1.25 mg/L
  Antifungal index (mycelial growth inhibition rate): 1 (Less than 60%)
Botrytis cinerea [1]
  Protective value (%): 100%
Wheat [2]; [5]
  Necrosis index: 0 (Less than 1%)
Wheat [2]; [6]
  Necrosis index: 0 (Less than 1%)
Wheat [2]; [7]
  Necrosis index: 0 (Less than 1%)
Botrytis cinerea [3]; 0.16 mg/L
  Antifungal index (mycelial growth inhibition rate): 3 (Less than 80% but not less than 70%)
Botrytis cinerea [3]; 0.31 mg/L
  Antifungal index (mycelial growth inhibition rate): 5 (90% or greater)
Botrytis cinerea [3]; 0.63 mg/L
  Antifungal index (mycelial growth inhibition rate): 5 (90% or greater)
Botrytis cinerea [3]; 1.25 mg/L
  Antifungal index (mycelial growth inhibition rate): 5 (90% or greater)
Botrytis cinerea [3]; 2.50 mg/L
  Antifungal index (mycelial growth inhibition rate): 5 (90% or greater)
Wheat [4]; [5]
  Growth inhibition index: 0 (50% or more)
Wheat [4]; [6]
  Growth inhibition index: 0 (50% or more)
Wheat [4]; [7]
  Growth inhibition index: 0 (50% or more)
Rhizopus oryzae; 0.16 mg/L
  Antifungal index (mycelial growth inhibition rate): 3 (Less than 80% but not less than 70%)
Rhizopus oryzae; 0.31 mg/L
  Antifungal index (mycelial growth inhibition rate): 4 (Less than 90% but not less than 80%)
Rhizopus oryzae; 0.63 mg/L
  Antifungal index (mycelial growth inhibition rate): 5 (90% or greater)
Rhizopus oryzae; 1.25 mg/L
  Antifungal index (mycelial growth inhibition rate): 5 (90% or greater)
Rhizopus oryzae; 2.50 mg/L
  Antifungal index (mycelial growth inhibition rate): 5 (90% or greater)
Pyrenophora graminea; 0.04 mg/L
  Antifungal index (mycelial growth inhibition rate): 2 (Less than 70% but not less than 60%)
Pyrenophora graminea; 0.08 mg/L
  Antifungal index (mycelial growth inhibition rate): 3 (Less than 80% but not less than 70%)
Pyrenophora graminea; 0.16 mg/L
  Antifungal index (mycelial growth inhibition rate): 4 (Less than 90% but not less than 80%)
Pyrenophora graminea; 0.31 mg/L
  Antifungal index (mycelial growth inhibition rate): 5 (90% or greater)
Pyrenophora graminea; 0.63 mg/L
  Antifungal index (mycelial growth inhibition rate): 5 (90% or greater)
Pyrenophora graminea; 1.25 mg/L
  Antifungal index (mycelial growth inhibition rate): 5 (90% or greater)
Microdochium nivale; 0.16 mg/L
  Antifungal index (mycelial growth inhibition rate): 1 (Less than 60%)
Microdochium nivale; 0.31 mg/L
  Antifungal index (mycelial growth inhibition rate): 3 (Less than 80% but not less than 70%)
Microdochium nivale; 0.63 mg/L
  Antifungal index (mycelial growth inhibition rate): 3 (Less than 80% but not less than 70%)
Microdochium nivale; 1.25 mg/L
  Antifungal index (mycelial growth inhibition rate): 4 (Less than 90% but not less than 80%)
Microdochium nivale; 2.50 mg/L
  Antifungal index (mycelial growth inhibition rate): 5 (90% or greater)
Fusarium oxysporum; 0.04 mg/L
  Antifungal index (mycelial growth inhibition rate): 1 (Less than 60%)
Fusarium oxysporum; 0.08 mg/L
  Antifungal index (mycelial growth inhibition rate): 3 (Less than 80% but not less than 70%)
Fusarium oxysporum; 0.16 mg/L
  Antifungal index (mycelial growth inhibition rate): 4 (Less than 90% but not less than 80%)
Fusarium oxysporum; 0.31 mg/L
  Antifungal index (mycelial growth inhibition rate): 4 (Less than 90% but not less than 80%)
Fusarium oxysporum; 0.63 mg/L
  Antifungal index (mycelial growth inhibition rate): 5 (90% or greater)
Fusarium oxysporum; 1.25 mg/L
  Antifungal index (mycelial growth inhibition rate): 5 (90% or greater)

## CC1(CCl)CCC(Cc2ccc(Cl)cc2)C1(O)Cn1cncn1 (single isomer, unassigned) [Compound (1-1b), (1,2-cis, 1,5-cis)-5-(4-chlorobenzyl)-2-chloromethyl-2-methyl-1-(1H-1,2,4-triazole-1-ylmethyl)cyclopentanol]
Septoria tritici; 0.04 mg/L
  Antifungal index (mycelial growth inhibition rate): 1 (Less than 60%)
Septoria tritici; 0.08 mg/L
  Antifungal index (mycelial growth inhibition rate): 1 (Less than 60%)
Septoria tritici; 0.16 mg/L
  Antifungal index (mycelial growth inhibition rate): 1 (Less than 60%)
Septoria tritici; 0.31 mg/L
  Antifungal index (mycelial growth inhibition rate): 3 (Less than 80% but not less than 70%)
Septoria tritici; 0.63 mg/L
  Antifungal index (mycelial growth inhibition rate): 5 (90% or greater)
Septoria tritici; 1.25 mg/L
  Antifungal index (mycelial growth inhibition rate): 5 (90% or greater)
Botrytis cinerea [1]
  Protective value (%): 45%
Wheat [2]; [5]
  Necrosis index: 0 (Less than 1%)
Wheat [2]; [6]
  Necrosis index: 2 (Less than 20% but not less than 5%)
Wheat [2]; [7]
  Necrosis index: 2 (Less than 20% but not less than 5%)
Botrytis cinerea [3]; 0.16 mg/L
  Antifungal index (mycelial growth inhibition rate): 1 (Less than 60%)
Botrytis cinerea [3]; 0.31 mg/L
  Antifungal index (mycelial growth inhibition rate): 1 (Less than 60%)
Botrytis cinerea [3]; 0.63 mg/L
  Antifungal index (mycelial growth inhibition rate): 3 (Less than 80% but not less than 70%)
Botrytis cinerea [3]; 1.25 mg/L
  Antifungal index (mycelial growth inhibition rate): 4 (Less than 90% but not less than 80%)
Botrytis cinerea [3]; 2.50 mg/L
  Antifungal index (mycelial growth inhibition rate): 5 (90% or greater)
Wheat [4]; [5]
  Growth inhibition index: 0 (50% or more)
Wheat [4]; [6]
  Growth inhibition index: 4 (Less than 20% but 10% or more)
Wheat [4]; [7]
  Growth inhibition index: 4 (Less than 20% but 10% or more)
Rhizopus oryzae; 0.16 mg/L
  Antifungal index (mycelial growth inhibition rate): 1 (Less than 60%)
Rhizopus oryzae; 0.31 mg/L
  Antifungal index (mycelial growth inhibition rate): 1 (Less than 60%)
Rhizopus oryzae; 0.63 mg/L
  Antifungal index (mycelial growth inhibition rate): 1 (Less than 60%)
Rhizopus oryzae; 1.25 mg/L
  Antifungal index (mycelial growth inhibition rate): 1 (Less than 60%)
Rhizopus oryzae; 2.50 mg/L
  Antifungal index (mycelial growth inhibition rate): 4 (Less than 90% but not less than 80%)
Pyrenophora graminea; 0.04 mg/L
  Antifungal index (mycelial growth inhibition rate): 3 (Less than 80% but not less than 70%)
Pyrenophora graminea; 0.08 mg/L
  Antifungal index (mycelial growth inhibition rate): 4 (Less than 90% but not less than 80%)
Pyrenophora graminea; 0.16 mg/L
  Antifungal index (mycelial growth inhibition rate): 5 (90% or greater)
Pyrenophora graminea; 0.31 mg/L
  Antifungal index (mycelial growth inhibition rate): 5 (90% or greater)
Pyrenophora graminea; 0.63 mg/L
  Antifungal index (mycelial growth inhibition rate): 5 (90% or greater)
Pyrenophora graminea; 1.25 mg/L
  Antifungal index (mycelial growth inhibition rate): 5 (90% or greater)
Microdochium nivale; 0.16 mg/L
  Antifungal index (mycelial growth inhibition rate): 1 (Less than 60%)
Microdochium nivale; 0.31 mg/L
  Antifungal index (mycelial growth inhibition rate): 1 (Less than 60%)
Microdochium nivale; 0.63 mg/L
  Antifungal index (mycelial growth inhibition rate): 1 (Less than 60%)
Microdochium nivale; 1.25 mg/L
  Antifungal index (mycelial growth inhibition rate): 2 (Less than 70% but not less than 60%)
Microdochium nivale; 2.50 mg/L
  Antifungal index (mycelial growth inhibition rate): 3 (Less than 80% but not less than 70%)
Fusarium oxysporum; 0.04 mg/L
  Antifungal index (mycelial growth inhibition rate): 1 (Less than 60%)
Fusarium oxysporum; 0.08 mg/L
  Antifungal index (mycelial growth inhibition rate): 3 (Less than 80% but not less than 70%)
Fusarium oxysporum; 0.16 mg/L
  Antifungal index (mycelial growth inhibition rate): 4 (Less than 90% but not less than 80%)
Fusarium oxysporum; 0.31 mg/L
  Antifungal index (mycelial growth inhibition rate): 5 (90% or greater)
Fusarium oxysporum; 0.63 mg/L
  Antifungal index (mycelial growth inhibition rate): 5 (90% or greater)
Fusarium oxysporum; 1.25 mg/L
  Antifungal index (mycelial growth inhibition rate): 5 (90% or greater)

Source: patent US9253983B2, “Triazole compound and use thereof” (KUREHA CORPORATION, priority 2011, dated 2016)
